The subject of test [1] is HCV genotype 1a (H77 strain) replicon in HUH-7 cells. Put plainly: HCV replicon luciferase reporter assay, genotype 1a. The conditions noted are these: Hepatitis C virus, Huh-7, 72 h, HCV genotype 1a replicon luciferase, 3 days incubation, read-out: LE_1a (EC50, range). It is filed as cell-based. An outline of the steps: (§1)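 Replicon inhibition for both genotypes was measured as Renilla luciferase signal (EnduRen, 7.5 μM final, 2 h) after 3-day, 37° C exposure of replicon-bearing HUH-7 cells in 4% FCS DMEM, 0.5% DMSO. The 1b construct carries S1179I; the 1a H77 construct carries P1496L and S2204I. Twenty-point, 3-fold dilutions were fitted four-parametrically for EC50, and CC50 was taken from multiplexed Cell Titer-Blue.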
In general terms: Replicon systems follow genome replication, usually without infectious particles.

The test system of test [2] is HCV genotype 1b (Con1) replicon in HUH-7 cells. Put plainly: HCV replicon luciferase reporter assay, genotype 1b. The conditions noted are these: Hepatitis C virus, Huh-7, 72 h, HCV genotype 1b replicon luciferase, 3 days incubation, read-out: LE_1b (EC50, range). Format: cell-based. An outline of the steps:
as §1

Among the data in patent US9499550B2 (BRISTOL-MYERS SQUIBB COMPANY, priority 2012, dated 2016) are EC50 values, retold here.

Each structure is given as a SMILES string.

In general, EC50 refers to the concentration that produces a half-maximal response. As to `CC(C)Oc1ccc2c(O[C@@H]3C[C@H]4C(=O)N[C@]5(C(=O)NS(=O)(=O)C6CC6)C[C@H]5/C=C\CC[C@H](C)C[C@@H](C)[C@H](NC(=O)O[C@H](C)C(F)(F)F)C(=O)N4C3)nccc2c1` [Compound 5149, (R)-1,1,1-trifluoropropan-2-yl((2R,6S,7R,9S,13aS,14aR,16aS,Z)-14a-((cyclopropylsulfonyl)carbamoyl)-2-((6-isopropoxyisoquinolin-1-yl)oxy)-7,9-dimethyl-5,16-dioxo-1,2,3,5,6,7,8,9,10,11,13a,14,14a,15,16,16a-hexadecahydrocyclopropa[e]pyrrolo[1,2-a][1,4]diazacyclopentadecin-6-yl)carbamate], the figures for the half-maximal effective concentration (EC50) in test [1] and in test [2] were 4.82 to 103 nM and less than 5.46 nM, respectively.

As for `CC(C)Oc1ccc2c(O[C@@H]3C[C@H]4C(=O)N[C@]5(C(=O)NS(=O)(=O)C6CC6)C[C@H]5/C=C\CC[C@@H](C)C[C@@H](C)[C@H](NC(=O)O[C@H](C)C(F)(F)F)C(=O)N4C3)nccc2c1` [Compound 5150, (R)-1,1,1-trifluoropropan-2-yl((2R,6S,7R,9R,13aS,14aR,16aS,Z)-14a-((cyclopropylsulfonyl)carbamoyl)-2-((6-isopropoxyisoquinolin-1-yl)oxy)-7,9-dimethyl-5,16-dioxo-1,2,3,5,6,7,8,9,10,11,13a,14,14a,15,16,16a-hexadecahydrocyclopropa[e]pyrrolo[1,2-a][1,4]diazacyclopentadecin-6-yl)carbamate], the EC50 in test [1] and in test [2] was less than 5.46 nM throughout.

`[2H]C([2H])([2H])C(C)(OC(=O)N[C@@H]1C(=O)N2C[C@H](Oc3nccc4cc(OC(C)C)ccc34)C[C@H]2C(=O)N[C@]2(C(=O)NS(=O)(=O)C3CC3)C[C@H]2/C=C\CC[C@H](C)C[C@H]1C)C([2H])([2H])[2H]` [Compound 5152, 1,1,1,3,3,3-hexadeutero-2-methylpropan-2-yl((2R,6S,7R,9S,13aS,14aR,16aS,Z)-14a-((cyclopropylsulfonyl)carbamoyl)-2-((6-isopropoxyisoquinolin-1-yl)oxy)-7,9-dimethyl-5,16-dioxo-1,2,3,5,6,7,8,9,10,11,13a,14,14a,15,16,16a-hexadecahydrocyclopropa[e]pyrrolo[1,2-a][1,4]diazacyclopentadecin-6-yl)carbamate]: the EC50 in test [1] and in test [2] was 4.82 to 103 nM each time.

For `[2H]C([2H])([2H])C(C)(OC(=O)N[C@@H]1C(=O)N2C[C@H](Oc3nccc4cc(OC(C)C)ccc34)C[C@H]2C(=O)N[C@]2(C(=O)NS(=O)(=O)C3CC3)C[C@H]2/C=C\CC[C@@H](C)C[C@H]1C)C([2H])([2H])[2H]` [Compound 5153, 1,1,1,3,3,3-hexadeutero-2-methylpropan-2-yl((2R,6S,7R,9R,13aS,14aR,16aS,Z)-14a-((cyclopropylsulfonyl)carbamoyl)-2-((6-isopropoxyisoquinolin-1-yl)oxy)-7,9-dimethyl-5,16-dioxo-1,2,3,5,6,7,8,9,10,11,13a,14,14a,15,16,16a-hexadecahydrocyclopropa[e]pyrrolo[1,2-a][1,4]diazacyclopentadecin-6-yl)carbamate], the EC50 in test [1] and in test [2] was less than 5.46 nM in each case.

As for `[2H]C([2H])([2H])C(OC(=O)N[C@@H]1C(=O)N2C[C@H](Oc3nccc4cc(OC(C)C)ccc34)C[C@H]2C(=O)N[C@]2(C(=O)NS(=O)(=O)C3CC3)C[C@H]2/C=C\CC[C@H](C)C[C@H]1C)(C([2H])([2H])[2H])C([2H])([2H])[2H]` [Compound 5154, 1,1,1,3,3,3-hexadeutero-2-(trideuteromethyl)propan-2-yl((2R,6S,7R,9S,13aS,14aR,16aS,Z)-14a-((cyclopropylsulfonyl)carbamoyl)-2-((6-isopropoxyisoquinolin-1-yl)oxy)-7,9-dimethyl-5,16-dioxo-1,2,3,5,6,7,8,9,10,11,13a,14,14a,15,16,16a-hexadecahydrocyclopropa[e]pyrrolo[1,2-a][1,4]diazacyclopentadecin-6-yl)carbamate], the EC50 in test [1] and in test [2] was 4.82 to 103 nM in each case.

In the case of `[2H]C([2H])([2H])C(OC(=O)N[C@@H]1C(=O)N2C[C@H](Oc3nccc4cc(OC(C)C)ccc34)C[C@H]2C(=O)N[C@]2(C(=O)NS(=O)(=O)C3CC3)C[C@H]2/C=C\CC[C@@H](C)C[C@H]1C)(C([2H])([2H])[2H])C([2H])([2H])[2H]` [Compound 5155, 1,1,1,3,3,3-hexadeutero-2-(trideuteromethyl)propan-2-yl((2R,6S,7R,9R,13aS,14aR,16aS,Z)-14a-((cyclopropylsulfonyl)carbamoyl)-2-((6-isopropoxyisoquinolin-1-yl)oxy)-7,9-dimethyl-5,16-dioxo-1,2,3,5,6,7,8,9,10,11,13a,14,14a,15,16,16a-hexadecahydrocyclopropa[e]pyrrolo[1,2-a][1,4]diazacyclopentadecin-6-yl)carbamate], the EC50 in test [1] and in test [2] was less than 5.46 nM in each case.

Turning to `CC(C)Oc1ccc2c(O[C@@H]3C[C@H]4C(=O)N[C@]5(C(=O)NS(=O)(=O)C6(C)CC6)C[C@H]5/C=C\CC[C@H](C)C[C@@H](C)[C@H](NC(=O)OC(C)(C)C)C(=O)N4C3)nccc2c1` [Compound 5156, tert-butyl ((2R,6S,7R,9S,13aS,14aR,16aS,Z)-2-((6-isopropoxyisoquinolin-1-yl)oxy)-7,9-dimethyl-14a-(((1-methylcyclopropyl)sulfonyl)carbamoyl)-5,16-dioxo-1,2,3,5,6,7,8,9,10,11,13a,14,14a,15,16,16a-hexadecahydrocyclopropa[e]pyrrolo[1,2-a][1,4]diazacyclopentadecin-6-yl)carbamate], the EC50 in test [1] and in test [2] was 4.82 to 103 nM throughout.

`CC(C)Oc1ccc2c(O[C@@H]3C[C@H]4C(=O)N[C@]5(C(=O)NS(=O)(=O)C6(C)CC6)C[C@H]5/C=C\CC[C@@H](C)C[C@@H](C)[C@H](NC(=O)OC(C)(C)C)C(=O)N4C3)nccc2c1` [Compound 5157, tert-butyl ((2R,6S,7R,9R,13aS,14aR,16aS,Z)-2-((6-isopropoxyisoquinolin-1-yl)oxy)-7,9-dimethyl-14a-(((1-methylcyclopropyl)sulfonyl)carbamoyl)-5,16-dioxo-1,2,3,5,6,7,8,9,10,11,13a,14,14a,15,16,16a-hexadecahydrocyclopropa[e]pyrrolo[1,2-a][1,4]diazacyclopentadecin-6-yl)carbamate]: the EC50 in test [1] and in test [2] was less than 5.46 nM throughout.

For `CC(C)Oc1ccc2c(O[C@@H]3C[C@H]4C(=O)N[C@]5(C(=O)NS(=O)(=O)C6(C)CC6)C[C@H]5/C=C\CC[C@H](C)C[C@@H](C)[C@H](NC(=O)OC(C)(C)C(F)(F)F)C(=O)N4C3)nccc2c1` [Compound 5158, 1,1,1-trifluoro-2-methylpropan-2-yl((2R,6S,7R,9S,13aS,14aR,16aS,Z)-2-((6-isopropoxyisoquinolin-1-yl)oxy)-7,9-dimethyl-14a-(((1-methylcyclopropyl)sulfonyl)carbamoyl)-5,16-dioxo-1,2,3,5,6,7,8,9,10,11,13a,14,14a,15,16,16a-hexadecahydrocyclopropa[e]pyrrolo[1,2-a][1,4]diazacyclopentadecin-6-yl)carbamate], the EC50 in test [1] was 4.82 to 103 nM; in test [2] it was less than 5.46 nM.
